This passage reports Inhibition results from ChEMBL document CHEMBL1135522, “Novel retinoid X receptor antagonists: specific inhibition of retinoid synergism in RXR-RAR heterodimer actions” (2002).

Experiment [1] deals with HL-60. Briefly: Percentage inhibition of human promyelocytic leukemia cells HL-60 differentiation induced by combined RAR and RXR agonists; Range is from 34-73. The class given is functional.
Experiment [2] relates to HL-60. Briefly: Percentage of human promyelocytic leukemia cells HL-60 differentiation induced by Am80 RAR agonist. Format: functional.

As a reminder, the Inhibition is the drop in the measured response relative to a control, in per cent. For `CC1(C)CCC(C)(C)c2cc(N(CC3CC3)c3ncc(C(=O)O)cn3)ccc21`, the Inhibition in the experiment on HL-60 [1] is 73%.

In the experiment with HL-60 [2], `CCCCCOc1cc2c(cc1N(C)c1ncc(C(=O)O)cn1)C(C)(C)CCC2(C)C` displayed an Inhibition of 44%.
